Measurements taken from a melting point compilation (Tetko et al.; mined from patent text by program, amines drawn as free bases though some values may be those of a salt).
Non-standard residues stand in square brackets, D forms with d. Residues, ends and D or L forms follow the SMILES beside them. ξ: configuration not given here. *: point of attachment. ξQ = NC(=O)CCC(N)C(=O)O; Cbz = O=C(OCc1ccccc1)*

melting point [°C] | SMILES
168 to 169 | O=C(NCCc1ccc(O)cc1)c1ccc2n1Cc1ccccc1N(C(=O)CSc1ccc(Br)cc1)C2
50 to 52 | CSc1c(C)n(C)c2ccccc12
125 to 127 | Cn1cc(C2=C(c3cn(CCCSc4ncccn4)c4ccccc34)C(=O)NC2=O)c2ccccc21
140 to 142 | COC1OCC[C@@H]1NC(=O)[C@H](Cc1ccccc1)NC(=O)OCc1ccccc1 (stereo not given in full)
164 to 166 | O=C1Cc2c(cccc2OCC2CO2)N1 (stereo not given)
105 to 108 | CC1(C)CC(=NO)c2cc(OCc3ccccc3)ccc2O1
202 to 203 | CCCn1c(=O)c2[nH]c(C)nc2n(CCC)c1=O
236 to 239 | CC(C)c1ccc(-c2cc(C(=O)O)c(-c3cccc(C(=O)O)c3)o2)cc1
229 to 231 | CCC(=O)c1c[nH]c2cc(C(=O)OC)ccc12
80 to 84 | CC1(C)Oc2c(N)cccc2C1=O
137 to 140 | OCC1(CO)COCCNCCOCCCOCCNCCO1
137 to 138 | N#Cc1ccc(/C=C/C(=O)/C=C/c2ccc(C#N)cc2)cc1
174 to 175 | Cc1ccccc1NC(=O)CN1C[C@@H](C)N(c2ncnc3sccc23)[C@@H](C)C1
192 to 193 | CCN(C(C)=O)c1cccc(-c2ccc3nnc(N)n3n2)c1
205 to 207 | O=C(O)c1ccccc1OCCOc1cccc2ccccc12
107 to 108 | COCc1ccc(C(=O)NCC#N)cc1

melting point [°C] | SMILES
120 to 125 | COc1ccc(C(Cl)=NS(=O)(=O)C=Cc2ccc(Cl)c(Cl)c2)cc1OC
116 to 117 | CC(C)(C)c1cc(CCNCc2cccc(NC(=N)c3cccs3)c2)cc(C(C)(C)C)c1O
227 to 229 | CCNC(=O)CC1CN=C(c2cc3cc(Oc4ccc(S(C)(=O)=O)nc4)cc(CC)c3[nH]2)S1 (stereo not given)
88 | CCOC(=O)C(C)(C)C(=O)C(Oc1ccc(Cl)cc1)n1ccnc1 (stereo not given)
78 to 79 | COC(=O)c1nn(C)c2ccccc12
292 to 293 | Cc1c(N)c(=O)n2c3c(cc(C(O)(C(F)(F)F)C(F)(F)F)cc13)CC2
129 to 131 | COC(=O)c1ccc(CN(O)Cc2ccc(C(=O)OC)cc2)cc1
200 to 201 | CCS(=O)(=O)c1ccc(C(CC2CCCC2)C(=O)NC(=O)NC)cc1 (stereo not given)
187 to 188 | CC(C)S(=O)(=O)n1c(N)nc2ccc(C(=C(Cl)Cl)c3ccccc3)cc21
279 to 281 | CCCc1cnn2c(O)cc(CC)nc12
125 to 128 | O=c1oc2ccccc2c(=O)n1CCCCCCCCCO
56 to 60 | CCOC(=O)CN(C)C(=O)CC1=C(n2nc(-c3c(-c4ccccc4)nn4ccccc34)ccc2=O)CCCC1
63.5 to 65 | CCOC(=O)c1c(C(F)(F)F)nc(C(F)F)c(C=O)c1CC
294 to 295 | Cn1c(=O)c(=O)[nH]c2ccc3ccccc3c21
152 to 155 | N=C(NC=Cc1ccc([N+](=O)[O-])cc1)c1cccc([N+](=O)[O-])c1
93 to 95 | CCNC(=S)Nc1cc(F)ccc1C

Further lines, the compound ahead of its results:

SMILES | melting point [°C]
O=C(O)c1ccc(NCc2cccc(Cl)c2)cn1 | 170 to 174
COC(=O)c1nc(-c2ccccn2)n2c1CN=C(c1ccccc1Cl)c1cc(Cl)ccc1-2 | 282 to 285
CC(C)Cc1ccc(CCc2cc3c(s2)NC(=O)CN=C3c2ccccc2Cl)cc1 | 179 to 181
COC(=N)Nc1nc(Cl)cc(OC)n1 | 118 to 120
O=C(Nc1cccc(C(F)(F)F)c1)Nc1c(C(=O)O)[nH]c(=O)[nH]c1=O | > 300
O=C(Nc1ncccn1)c1c(Cl)ccc2c1OCCO2 | 223
COC(=O)c1ccc2c(=O)[nH]c(=O)n(CCCCBr)c2c1 | 184 to 185
O=C(O)/C=C/c1cccc(-c2nc3c(=O)n(CC4CCCCC4)c(=O)n(CC4CCCCC4)c3[nH]2)c1 | > 350
C=C(C)C(=O)NC1(C(=O)O)CCCCC1 | 176 to 178
CCOC(=O)c1cc(NC(=O)c2ccc(C)cc2)ccc1N | 167 to 171
CC(=O)SCC(C(=O)Nc1cccc(O)c1)C(F)(F)F (stereo not given) | 148 to 149
CCC(SN(C(=O)NC(=O)c1c(F)cccc1F)c1ccc(Oc2ccc(C(F)(F)F)cc2Cl)cc1F)C(=O)NC (stereo not given) | 136 to 138
CCCCNS(=O)(=O)c1cc(C(=O)O)cc(NCc2ccccc2)c1Oc1ccccc1 | 212
CN1C(=O)CN=C(c2ccccc2F)c2cc(NC(=O)N3CCCC3)ccc21 | 159 to 160
CCCCOC(=O)c1ccc2c(C(=O)c3ccc(OCCN4CCCCC4)cc3)c(-c3ccc(O)cc3)sc2c1 | 87 to 90
CCCCn1c(=O)c(C(=O)Nc2ccncc2)c(O)c2sccc21 | 212 to 216
CC1CC2(C)C(O)CCC2C2C(C)CC3=CC(=O)CCC3C12 (stereo not given) | 155 to 157
CCCC(=O)c1cnc2c(C(C)=O)cccc2c1Nc1ccc(O)cc1C | 183 to 185
CS(=O)(=O)Nc1cc(NC(=N)c2ccccc2)cc(NC(=O)/C=C/c2ccccc2C(F)(F)F)c1 | 150 to 155
CCCc1cc(C(=O)OC)ccc1OCCCCCOc1ccc2c(c1CCC)OC(C(=O)OC)CC2 (stereo not given) | 63 to 64
Cc1c(CCC(=O)c2c[nH]c3ccccc23)ncn1C(c1ccccc1)(c1ccccc1)c1ccccc1 | 225 to 227
O=[N+]([O-])c1ccc(N2CCN(CCCCCCCCCCCO)CC2)cc1 | 118
CC(=O)n1c(CCc2ccccc2)cc2c(I)ccnc21 | 109 to 110
COc1ccc2c(c1O)COCc1cc(OC)c(OC)c(OC)c1-2 | 145 to 147
Cc1ccc(-c2nc(N)ncc2-c2ccc(=O)n(C(C)C)n2)cc1 | 224

SMILES | melting point [°C]
CS(=O)(=O)c1cccc(Nc2cc(-c3ccccc3O)ncn2)c1 | 214 to 216
CSC1NC(=O)N(C2CCCCC2)C(=O)N1N=C(C)C (stereo not given) | 111 to 112
C[C@@H](Oc1cncc(C(=O)Nc2ccc(C#N)cc2)c1)c1ccc(F)cc1 | 151 to 152
NS(=O)(=O)C1(C2C(Cl)=CC=CN2C(F)(F)F)C=CC(Cl)=CC1Cl (stereo not given) | 125 to 126
NC(=S)Nc1ccc(CCNCc2cccc(Cl)c2)cc1 | 132 to 134
CCOCc1nc2c(N)nc3ccccc3c2n1CCOCCCS(=O)(=O)N(C)C | 61 to 64
Nc1ccccc1Sc1c(N)[nH]c(=O)[nH]c1=O | > 310
CSCCCC(=O)NNC(=O)N1Cc2ccccc2Oc2ccc(Cl)cc21 | 134 to 137
COc1cccc(CNC(=O)c2nc3ccc(-c4ccccc4)cc3c(=O)[nH]2)c1 | 202 to 204
COc1ccc(CN2CCc3ncccc3C2)cc1OC | 76 to 77
O=C(c1ccc(Cl)cc1)c1c(N2C(=O)c3ccccc3C2=O)sc(Br)c1CO | 170 to 172
NC(CSCC(O)CN1CCOCC1)C(=O)O (stereo not given) | 200
Fc1cccc(F)c1-c1ncc(-c2ccc(Br)cc2)cn1 | 193 to 194
CCOc1cccc(-n2cnc(-c3nc(CC)no3)c2)c1 | 120 to 121
Brc1cnn2ccc(N3CCNCC3)nc12 | 108 to 109
CC(=O)N1CCCC1c1ccnc(-c2nc(=O)c3ccccc3s2)c1 (stereo not given) | 206 to 207
COCCN1CCN(CCCOc2ccc3nc(C#N)nc(NCC(C)(C)C)c3c2)CC1 | 92 to 94
OC(CCc1ccccc1)c1cc2ccncc2[nH]1 (stereo not given) | 162 to 166
CCCCOC1=C(c2ccccc2)C(CCC(=O)O)OC1=O (stereo not given) | 94 to 96
CCOc1cccnc1CSCCNC(=C[N+](=O)[O-])SC | 126 to 127
CCn1cc(C(=O)O)c(=O)c2cc(F)c(N3CCNCC3)c(C)c21 | 153 to 156
CC(C)(C)OC(=O)C[C@H](O)CC#N | 63 to 64
O=C(O)c1cn2c(n1)COc1ccccc1-2 | 256 to 258
COc1ccccc1Cc1ccc(N)c(C#N)c1 | 77.5 to 78.5
[N-]=[N+]=NC(C(=O)O)c1ccsc1 (stereo not given) | 58 to 59

SMILES | melting point [°C]
COc1cc2c(=O)n(CCN(C)C)c3c(cnc4cccc([N+](=O)[O-])c43)c2cc1OC | 194 to 195
CCc1ccc(NC(C)=O)cc1 | 94 to 96
CCOC(=O)[C@H](Cc1ccc(-c2c(OC)cc(CN3CCSCC3)cc2OC)cc1)NC(=O)c1c(Cl)cccc1Cl | 86 to 89
CCn1c(=O)sc2cc([N+](=O)[O-])ccc21 | 200 to 203
O=C(O)COc1cc2c(c(Cl)c1Cl)C(=NO)C1(CCCC1)C2 | 228
COC[C@H]1C[C@@H](n2cnc3c(N[C@H]4CCN(c5ccc(C(F)(F)F)cn5)C4)ncnc32)[C@@H](O)[C@H]1O | 166 to 168
COC(=O)CNC(=O)CNC(=O)C(CCC(N)=O)NC(=O)OCc1ccccc1 (stereo not drawn) (Cbz-[ξQ]-Gly-Gly-OMe) | 129 to 134
Cn1nnnc1SCCCS(=O)(=O)c1ccccn1 | 98.5 to 101
CN(C(=O)Cc1cccc2ccccc12)C1c2ccccc2CCC1N1CCCC1 (stereo not given) | 125
CCCCCCCCCCCCc1cc(Cc2ccccc2)on1 | 41 to 43
Cc1ccc(Cn2nc(C(=O)O)cc2-c2ccc(F)cc2)cc1Cl | 120
CN(C)S(=O)(=O)c1nnc(N)s1 | 188 to 190
O=NN1CCCSc2ccccc21 | 85 to 86
CS(=O)(=O)N(c1cc(F)c(F)cc1C#N)S(C)(=O)=O | 144
N#Cc1cnc2sc(-c3ccccc3C=O)cc2c1Nc1ccc2[nH]ccc2c1 | 222 to 224
N#Cc1ccc(-c2ccc(-c3cn4cc(C#N)ccc4n3)cc2)cc1 | 276 to 278
CC(=O)NC[C@H]1CN(c2ccc3c(c2)OCC(C)N3)C(=O)O1 (stereo not given in full) | 163 to 165
Cc1c(-c2ccncc2)[nH]c2c1C(=O)CCC2 | 248 to 249
CC(=O)OCC[Si](c1ccccc1)(c1ccccc1)c1ccccc1 | 67 to 68
Clc1ccc2ncc(Cl)n2n1 | 120 to 121
Cc1ccc(N2C(=O)C(O)=C(C(=NOCC(=O)O)c3ccc(C(C)C)cc3)C2c2ccc(OC(F)(F)F)cc2)nn1 (stereo not given) | 227
Cc1cc(NC2=NCCN2)n(-c2ccccc2C)n1 | 168 to 169
NNc1nc(C(F)(F)F)c(Cl)s1 | 136 to 137
